Assay [1] has as its system flower bud dieback on pear trees (Conference variety). As to the kind of experiment: Flower bud quality field trial against flower bud dieback on young pear trees. It counts as in vivo, pear trees (Conference cultivar). The method, then: (§1) During three consecutive years 2004, 2005 and 2006, a trial was carried out on young pear trees of the Conference cultivar on a Quince Adams stock. The pear trees of this orchard were planted in 1999 according to the system of a single row at a planting distance of 3.5 m between the rows and 1.5 m in the row with a tree height of 3 m.
(§2) During the 2004 trial, three products were compared in an arbitrary block design with 10 trees per plot in four repeats: the observations were made on the 8 trees inside the plot. […] The applications were in the post-flower period at an interval of 10 days.
(§3) In 2005, the same applications were repeated on the same trees.
In 2006, the complete trial was repeated on new trees in the same orchard. The fosetyl-Al doses varying between 2 and 3.75 kg/ha of standard orchard (corresponding to doses varying from 1.33 to 2.50 kg/ha of foliar surface area) were applied in the post-flower period during the months of May and June at an interval of 5 or 10 days between the treatments. Benzothiadiazole applied at a dose of 200 g/ha of standard orchard (corresponding to a dose of 133 g/ha of foliar surface area) was included as reference product in order to induce plant defense reactions by the trees.
(§4) After one year during flowering, the effect of the treatments on the quality of the flower bud was evaluated. Statistical analysis of the various parameters is performed (Unistat Statistical Package, Version 5.5). The original or processed data are analyzed according to the General Linear Model and the treatment means are separated in a standard manner using the Duncan multiple classification test (5% level).

The test system of assay [2] is pear trees (Conference cultivar). Description: Productivity of the pear trees after the treatments (field trial). It counts as in vivo. To be noted: 2006, treated 2004 and 2005; 3 x 0.2 kg/ha May interval 10 + 3 x 0.2 kg/ha June interval 14. How it is done: as §1, §2, §3, §4
The mark [3] stands for this setting: treated 2004, 2005 flower buds, 3 x dose 3 (kg/ha) May, interval 10.
The mark [4] stands for this setting: treated 2004, 2005 flower buds, 3 x dose 11.25 (kg/ha) May, interval 10.
Where [5] appears, read: treated 2004, 2005 flower buds, 3 x 0.2 kg/ha May interval 10 + 3 x 0.2 kg/ha June interval 14.
The mark [6] stands for this setting: treated 2006, 2007 flower buds, 3 x 0.2 kg/ha May, interval 10.

potassium phosphonate: the “Buds of good quality” value in assay [1] (setting [3]) worked out at 89.5%; in assay [1] (setting [4]), 92.4%. For the same compound, the figures for the “Number of incomplete buds/tree” value in assay [1] (setting [3]) and in assay [1] (setting [4]) were 7.2 buds/tree and 4.8 buds/tree, respectively.

Turning to `c1ccc2snnc2c1` [Benzothiadiazole, benzothiadiazole], in assay [1] (1-year old wood side position, treated 2004 and 2005, 2006 flower buds, 3 x 0.2 kg/ha May interval 10 + 3 x 0.2 kg/ha June interval 14), the “Good quality buds (%) 1 yw S” value was determined as 56.6%. The “Good quality buds (%) 1 yw T” value in assay [1] (1-year old wood terminal position, treated 2004 and 2005, 2006 flower buds, 3 x 0.2 kg/ha May interval 10 + 3 x 0.2 kg/ha June interval 14) amounted to 54.6%. Further, the “Good quality buds (%) 2 yw” value in assay [1] (2-year old wood, treated 2004 and 2005, 2006 flower buds, 3 x 0.2 kg/ha May interval 10 + 3 x 0.2 kg/ha June interval 14) stood at 58.5%. In addition, the “activity on flower bud quality” value in assay [1] (2004 treatments, 2005 buds, reference product) is given as “insufficient activity”. Further, in assay [1] (setting [5]), the “Buds of good quality” value was 71.2% and the “Number of incomplete buds/tree” value is listed as 22.5 buds/tree. For the same compound, the “Good quality buds (%) Per tree” value in assay [1] (treated 2004 and 2005, 2006 flower buds, 3 x 0.2 kg/ha May interval 10 + 3 x 0.2 kg/ha June interval 14) was 62.8%. For the same compound, in assay [1] (setting [6]), the “Buds that have died back (%)” value amounted to 43.5%, the “Good quality buds (%)” value is 44.2% and the “Number of incomplete buds/tree” value is recorded as 12.3 buds/tree. In addition, in assay [2], the “Average weight” value turned out to be 163.2 g, the Number of fruits/tree came out at 113.88 fruits/tree and the “Productivity (kg/tree)” value is listed as 18.5 kg/tree.
